EP4725948A1, “PYRROLO[2,3-D]PYRIMIDIN-4-AMINE DERIVATIVE AND USE THEREOF IN MEDICINE” (Haisco Pharmaceutical Group Co., Ltd., priority 2023, dated 2024)
pEC50: −log10 of the molar value.

Experiments:
sGC protein = target: T1, sGC protein (Homo sapiens, UniProt Q02108+Q02153); experiment: cGMP detection experiment in LNCap cells; type: cell-based; conditions: cGMP production in LNCap cells; 20 µM DETA-NO pre-incubation; relative to compound A
T1 construct: LNCap is a human prostate cancer cell line that expresses sGC protein; host or cells: LNCap (human prostate cancer cell line)
T1 sequence (Q02108 1-690): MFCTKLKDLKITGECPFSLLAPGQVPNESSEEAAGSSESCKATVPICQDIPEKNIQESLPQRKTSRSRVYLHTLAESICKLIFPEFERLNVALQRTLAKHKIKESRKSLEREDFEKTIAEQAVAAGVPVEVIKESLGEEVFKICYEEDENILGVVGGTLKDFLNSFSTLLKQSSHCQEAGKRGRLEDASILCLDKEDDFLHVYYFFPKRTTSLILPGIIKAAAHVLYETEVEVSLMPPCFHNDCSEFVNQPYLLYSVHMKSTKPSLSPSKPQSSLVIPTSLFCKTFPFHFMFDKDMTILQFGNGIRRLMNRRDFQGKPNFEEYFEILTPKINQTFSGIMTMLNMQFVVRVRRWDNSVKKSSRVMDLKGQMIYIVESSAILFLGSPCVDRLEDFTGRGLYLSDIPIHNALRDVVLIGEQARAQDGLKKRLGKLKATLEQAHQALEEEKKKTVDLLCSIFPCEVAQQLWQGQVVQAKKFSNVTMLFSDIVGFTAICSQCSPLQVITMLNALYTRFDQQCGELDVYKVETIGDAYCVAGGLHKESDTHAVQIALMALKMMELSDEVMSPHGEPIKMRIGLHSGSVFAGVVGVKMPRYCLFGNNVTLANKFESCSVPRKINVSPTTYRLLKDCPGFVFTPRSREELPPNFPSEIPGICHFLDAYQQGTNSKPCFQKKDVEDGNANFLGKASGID
T1 sequence (Q02153 1-619): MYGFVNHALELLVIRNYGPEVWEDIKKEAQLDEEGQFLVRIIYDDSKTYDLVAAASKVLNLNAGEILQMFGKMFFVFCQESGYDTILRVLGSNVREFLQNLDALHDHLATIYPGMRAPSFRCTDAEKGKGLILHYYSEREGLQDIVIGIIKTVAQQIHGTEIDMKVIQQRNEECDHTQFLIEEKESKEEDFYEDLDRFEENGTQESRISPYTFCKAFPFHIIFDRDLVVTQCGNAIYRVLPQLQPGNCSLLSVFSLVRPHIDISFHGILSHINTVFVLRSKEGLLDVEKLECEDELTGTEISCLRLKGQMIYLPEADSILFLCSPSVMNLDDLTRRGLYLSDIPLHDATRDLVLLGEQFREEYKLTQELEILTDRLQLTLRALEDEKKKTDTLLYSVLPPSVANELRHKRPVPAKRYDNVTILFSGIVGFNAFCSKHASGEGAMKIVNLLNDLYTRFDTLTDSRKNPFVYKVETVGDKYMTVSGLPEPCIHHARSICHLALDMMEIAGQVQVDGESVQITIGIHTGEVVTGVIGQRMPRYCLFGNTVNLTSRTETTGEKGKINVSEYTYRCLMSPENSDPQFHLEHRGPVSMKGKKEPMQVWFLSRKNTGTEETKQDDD
Procedure: LNCap is a human prostate cancer cell line that expresses sGC protein. […] On the day of the detection, the cells were reselected in assay buffer (EBSS assay buffer+[…] of MgCl2+10 mM HEPES+0.05% BSA) at a density of 2 × 10^5/mL. 0.5 mM IBMX was added to prevent cGMP degradation.
The cells were pre-incubated with 20 µM diethylenetriamine/nitric oxide (DETA-NO) at 37°C for 30 minutes, and then different concentrations of the compounds were added. The mixture was further incubated at room temperature for 1 h. After the incubation was completed, the reaction was terminated, and intracellular cGMP levels were measured according to the instructions for the CisBio kit (Cisbio, 62GM2PEC).

[1] = AE frequency, riociguat group, cited from earlier work
[2] = target: T2, soluble guanylate cyclase (sGC) (Homo sapiens, UniProt Q02108+Q02153); experiment: In vitro detection experiment for soluble guanylate cyclase (sGC) activity (TR-FRET);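 also: enzyme reaction started with GTP and run for 60 min at 37°C, followed by a 60 min detection step at room temperature, with EC50 obtained by nonlinear curve fitting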
T2 sequence (Q02108 1-690): T1 sequence (Q02108 1-690)
T2 sequence (Q02153 1-619): T1 sequence (Q02153 1-619)
Procedure: First, 100 nL of the compounds at different concentrations were transferred to a 384-well reaction plate (Greiner, Cat. No. 784075) using Echo 655 (LABCYTE, Cat # 655), with the final DMSO concentration of 1% in the reaction mixture; 2 µL of sGC (ICE, Cat. No. S2304F-H07SH2) was added to a 384-well reaction plate, and the mixture was centrifuged at 1000 rpm for 1 min; and then 1 µL of DETA NONOate was added, and the mixture was incubated at 37°C for10 min. After the incubation was completed, 2 µL of GTP was added, and the mixture was centrifuged at 1000 rpm for 1 min and reacted at 37°C for 60 min. In the reaction system, the final concentrations of sGC, GTP, and DETA NONOate were 1.5 nM, 5 µM, and 100 µM, respectively. After the reaction was completed, 5 µL of the test mixture (PerkinElmer, Cat. No. 62GM2PEG) was added and incubated at room temperature for 60 min. The TR-FRET signal (Ratio: 665/620 nm) was read using a microplate reader (BMG, Cat. No. PHERAstar FSX). A nonlinear regression curve was fitted using GraphPad Prism software, and EC50 values were calculated. Compound A (Example 1 in WO 2010065275) was used as a positive reference compound.

[3] = Pharmacokinetic test in rats (inhalation administration); conditions: for Lung AUC0-t/plasma AUC0-t / Lung AUC0-t / Lung Cmax: SD rats, single inhalation dose 0.03 mg/kg; for Lung AUC0-t / Lung Cmax: lung tissue
Procedure: Experimental objective: In this experiment, the test compound was administered as a single dose via inhalation to SD rats, and the concentrations of the test compound in rat plasma and lungs were determined to evaluate the pharmacokinetic characteristics and bioavailability of the test compound in the rats.
Experimental animals: Male SD rats, 180-200 g, purchased from Chengdu Dossy Experimental Animals Co., Ltd.
Experimental method: On the day of the experiment, SD rats were randomly assigned into 6 groups according to body weight (for each compound), with 2 rats in each group. The rats were fasted with water available for 12 to 16 hours one day before the administration, and were fed 4 hours after the administration.
Plasma sampling: before and after the administration, blood was taken from the orbits of the rats under isoflurane anaesthesia, and placed in an EDTAK2 centrifuge tube. Centrifugation was performed at 6000 rpm at 4°C for 10 min, and the plasma was collected.
Lung tissue sampling: Animals from each group were euthanised by CO2 inhalation at 0.25, 0.5, 1, 4, 7 and 24 hours after the administration. Then, the animal was dissected to collect lung tissue, which was rinsed with physiological saline, dried with filter paper, weighed in the balance, kept on wet ice and homogenised within 2 hours using a 6-fold volume (i.e., 6 mL per 1 g of tissue) of homogenisation buffer (50% methanol-water).
Before analysis and detection, all samples were stored at -60°C. The samples were analysed quantitatively by LC-MS/MS.

[4] = 12-week PATENT-1 study (placebo 2%)

pEC50 (sGC protein)	Lung AUC0-t/plasma AUC0-t [3]	Lung AUC0-t [3] [ng·h/mL]	Lung Cmax [3] [ng/mL]	SMILES	also measured
> 6.30				CC(C)(Cc1csc(C2(C)C(=O)Nc3nc(-n4nc(Cc5ccccc5F)c5c(F)cccc54)nc(N)c32)n1)C(=O)O (single isomer, unassigned) [Compound 41-1]	
> 6.30				CC(C)(Cc1csc(C2(C)C(=O)Nc3nc(-n4nc(Cc5ccccc5F)c5cc(Cl)ccc54)nc(N)c32)n1)C(=O)O (single isomer, unassigned) [Compound 32-1]	
> 6.30	97.9	608	1183	CC(C)(Cc1csc([C@]2(C)C(=O)Nc3nc(-n4c(=O)n(CCC(F)(F)C(F)(F)F)c5cc(F)ccc54)nc(N)c32)n1)C(=O)O [Compound 31-1]	
5.49		220	273	CC(C)(Cc1csc([C@]2(C)C(=O)Nc3nc(-c4nn(CCC(F)(F)C(F)(F)F)c5ncccc45)nc(N)c32)n1)C(=O)O [Control compound 1, reference compound]	Kp ([3]; male, SD, rat, lung and plasma, inhaled or intranasal, 0.03 mg/kg): 29.1
> 6.30		5432	2545	CC(C)(Cc1csc(C2(C)C(=O)Nc3nc(-n4nc(Cc5ccccc5F)c5ncc(F)cc54)nc(N)c32)n1)C(=O)O (single isomer, unassigned) [Compound 35-1]	
> 6.30				CC(C)(Cc1csc(C2(C)C(=O)Nc3nc(-n4nc(CCC(F)(F)C(F)(F)F)c5c(F)cccc54)nc(N)c32)n1)C(=O)O (single isomer, unassigned) [Compound 43-1]	
	245	12248	2842	CC(C)(Cc1csc([C@]2(C)C(=O)Nc3nc(-c4nc(Cc5ccccc5F)n5ncccc45)nc(N)c32)n1)C(=O)O [Compound 19-1]	
	83.6		1743	CC(C)(Cc1csc([C@]2(C)C(=O)Nc3nc(-n4c(=O)n(Cc5ccccc5F)c5cc(F)ccc54)nc(N)c32)n1)C(=O)O [Compound 38-1]	

Continued, compound first:

SMILES	pEC50 (sGC protein)	Lung AUC0-t/plasma AUC0-t [3]	Lung AUC0-t [3] [ng·h/mL]	Lung Cmax [3] [ng/mL]	also measured
CC(C)(Cc1csc(C2(C)C(=O)Nc3nc(-n4c(=O)n(Cc5ccccc5F)c5c(F)cccc54)nc(N)c32)n1)C(=O)O (single isomer, unassigned) [Compound 15-1]	> 6.30				
COC(=O)N(C)c1c(N)nc(-c2nn(Cc3ccccc3F)c3ncccc23)nc1N [riociguat, Riociguat]					constipation ([1]; 12-week PATENT-1 study (placebo 1%)): 5%; anaemia [1, 4]: 7%; gastrooesophageal reflux disease [1, 4]: 5%; hypotension ([1]; 12-week PATENT-1 study (placebo 4%)): 10%; vomiting ([1]; 12-week PATENT-1 study (placebo 7%)): 10%; diarrhoea ([1]; 12-week PATENT-1 study (placebo 8%)): 12%; dizziness ([1]; 12-week PATENT-1 study (placebo 13%)): 20%
CC(C)(Cc1coc(C2(C)C(=O)Nc3nc(-n4c(=O)n(CC5CCCCC5)c5c(F)cccc54)nc(N)c32)n1)C(=O)O (centres unmarked) [Trifluoroacetate of compound 27]	> 6.30				pEC50 [2]: > 7.70
CC(C)(Cc1csc([C@]2(C)C(=O)Nc3nc(-n4c(=O)n(CCC(F)(F)C(F)(F)F)c5c(F)cccc54)nc(N)c32)n1)C(=O)O [Compound 14-1]	> 6.30				
CC(C)(Cc1csc([C@]2(C)C(=O)Nc3nc(-n4nc(CCC(F)(F)C(F)(F)F)c5cc(F)ccc54)nc(N)c32)n1)C(=O)O [Compound 17-1]	> 6.30	48.4	2021	1754	
CC(C)(Cc1csc(C2(C)C(=O)Nc3nc(-n4nc(CCC(F)(F)C(F)(F)F)c5cc(Cl)ccc54)nc(N)c32)n1)C(=O)O (single isomer, unassigned) [Compound 4-1]	> 6.30	77.1	2462	2352	
